According to ChEMBL document CHEMBL4364344, “Design, synthesis and evaluation of activity and pharmacokinetic profile of new derivatives of xanthone and piperazine in the central nervous system” (Bioorg Med Chem Lett, 2019):
Active and inactive are the calls of the source. The rule behind the calls is not given here.

Tests used:
[1] = target: Serotonin 2 (5-HT2) receptor (Rattus norvegicus) (UniProt P30994+P08909+P14842); assay: Displacement of [3H]ketanserin from 5-HT2 receptor in Wistar rat brain cortex membrane at 10 uM after 40 mins by scintillation counting analysis relative to control; assay type: cell membranes
Mus musculus [2] = assay: Antidepressant-like activity in albino Swiss CD-1 mouse assessed as reduction in immobility at 10 mg/kg, ip pretreated for 30 mins and measured after 6 mins by force swim test relative to control; assay type: functional; parameters: scale not given: the % may be the effect or the level left
[3] = Mutagenicity in Salmonella typhimurium TA100 at 5 ug/plate preincubated for 20 mins followed by addition of top agar and measured after 48 hrs by Ames test; assay type: toxicity; conditions: salmonella enterica subsp. enterica serovar typhimurium
Mus musculus [4] = assay: Antidepressant-like activity in albino Swiss CD-1 mouse assessed as reduction in immobility at 20 mg/kg, ip pretreated for 30 mins and measured after 6 mins by force swim test relative to control; assay type: functional; parameters: scale not given: the % may be the effect or the level left
Mus musculus [5] = assay: Anxiolytic activity in Swiss CD-1 mouse assessed as increase in number of punished crossings at 5 mg/kg, ip administered 30 mins prior to test and measured for 60 secs by four-plate test relative to control; assay type: functional
[6] = Mutagenicity in Salmonella typhimurium TA98 at 2.5 ug/plate preincubated for 20 mins followed by addition of top agar and measured after 48 hrs by Ames test; assay type: toxicity; conditions: salmonella enterica subsp. enterica serovar typhimurium
[7] = Apparent volume of distribution in CD-1 mouse plasma at 5 mg/kg, ip measured up to 480 mins by LC/ESI-MS/MS analysis; assay type: ADME, organism-based
[8] = Mutagenicity in Salmonella typhimurium TA100 at 500 ug/plate preincubated for 20 mins followed by addition of top agar and measured after 48 hrs by Ames test; assay type: toxicity; conditions: salmonella enterica subsp. enterica serovar typhimurium
[9] = Terminal half life in CD-1 mouse plasma at 5 mg/kg, ip measured up to 480 mins by LC/ESI-MS/MS analysis; assay type: ADME, organism-based; conditions: read-out: beta t1/2
[10] = Tmax in CD-1 mouse brain at 5 mg/kg, ip measured up to 480 mins by LC/ESI-MS/MS analysis; assay type: ADME, organism-based
[11] = MRT in CD-1 mouse brain at 5 mg/kg, ip measured up to 480 mins by LC/ESI-MS/MS analysis; assay type: ADME, organism-based
[12] = Mutagenicity in Salmonella typhimurium TA100 preincubated for 20 mins followed by addition of top agar and measured after 48 hrs by Ames test; assay type: toxicity; conditions: salmonella enterica subsp. enterica serovar typhimurium
[13] = Mutagenicity in Salmonella typhimurium TA102 at 5 ug/plate preincubated for 20 mins followed by addition of top agar and measured after 48 hrs by Ames test; assay type: toxicity; conditions: salmonella enterica subsp. enterica serovar typhimurium
[14] = Apparent clearance in CD-1 mouse plasma at 5 mg/kg, ip measured up to 480 mins by LC/ESI-MS/MS analysis; assay type: ADME, organism-based
[15] = Mutagenicity in Salmonella typhimurium TA100 at 250 ug/plate preincubated for 20 mins followed by addition of top agar and measured after 48 hrs by Ames test; assay type: toxicity; conditions: salmonella enterica subsp. enterica serovar typhimurium
Mus musculus [16] = assay: Antidepressant-like activity in Swiss CD-1 mouse assessed as reduction in immobility at 10 mg/kg, ip pretreated for 30 mins and measured after 6 mins by force swim test; assay type: functional, organism-based
[17] = Cmax in CD-1 mouse brain at 5 mg/kg, ip measured up to 480 mins by LC/ESI-MS/MS analysis; assay type: ADME, organism-based; parameters: dose 5 mg/kg, route intraperitoneal
[18] = Ratio of drug uptake in CD-1 mouse brain to plasma at 5 mg/kg, ip measured up to 480 mins by LC/ESI-MS/MS analysis; assay type: ADME, organism-based; conditions: read-out: BPR
[19] = Tmax in CD-1 mouse plasma at 5 mg/kg, ip measured up to 480 mins by LC/ESI-MS/MS analysis; assay type: ADME, organism-based
[20] = Cmax in CD-1 mouse plasma at 5 mg/kg, ip measured up to 480 mins by LC/ESI-MS/MS analysis; assay type: ADME, organism-based; parameters: dose 5 mg/kg, route intraperitoneal
[21] = MRT in CD-1 mouse plasma at 5 mg/kg, ip measured up to 480 mins by LC/ESI-MS/MS analysis; assay type: ADME, organism-based
[22] = AUC (0 to total) in CD-1 mouse brain at 5 mg/kg, ip measured up to 480 mins by LC/ESI-MS/MS analysis; assay type: ADME, organism-based; conditions: in vivo, 8 h
[23] = Terminal half life in CD-1 mouse brain at 5 mg/kg, ip measured up to 480 mins by LC/ESI-MS/MS analysis; assay type: ADME, organism-based; conditions: read-out: beta t1/2
[24] = Mutagenicity in Salmonella typhimurium TA98 at 5 ug/plate preincubated for 20 mins followed by addition of top agar and measured after 48 hrs by Ames test; assay type: toxicity; conditions: salmonella enterica subsp. enterica serovar typhimurium
Mus musculus [25] = assay: Antidepressant-like activity in albino Swiss CD-1 mouse assessed as reduction in immobility at 5 mg/kg, ip administered 30 mins prior to test and measured after 6 mins by force swim test relative to control; assay type: functional; parameters: scale not given: the % may be the effect or the level left
[26] = AUC (0 to t) in CD-1 mouse plasma at 5 mg/kg, ip measured up to 480 mins by LC/ESI-MS/MS analysis; assay type: ADME, organism-based; parameters: dose 5 mg/kg, time < 8 hr, route intraperitoneal
[27] = Drug metabolism in mouse liver microsomes assessed as metabolite formation by measuring retention time at 20 uM after 30 to 60 mins in presence of NADP by UPLC/MS analysis; assay type: ADME, Microsome
[28] = Mutagenicity in Salmonella typhimurium TA98 at 50 ug/plate preincubated for 20 mins followed by addition of top agar and measured after 48 hrs by Ames test; assay type: toxicity; conditions: salmonella enterica subsp. enterica serovar typhimurium
[29] = Mutagenicity in Salmonella typhimurium TA100 at 50 ug/plate preincubated for 20 mins followed by addition of top agar and measured after 48 hrs by Ames test; assay type: toxicity; conditions: salmonella enterica subsp. enterica serovar typhimurium
[30] = Mutagenicity in Salmonella typhimurium TA102 at 50 ug/plate preincubated for 20 mins followed by addition of top agar and measured after 48 hrs by Ames test; assay type: toxicity; conditions: salmonella enterica subsp. enterica serovar typhimurium
[31] = Mutagenicity in Salmonella typhimurium TA102 at 250 ug/plate preincubated for 20 mins followed by addition of top agar and measured after 48 hrs by Ames test; assay type: toxicity; conditions: salmonella enterica subsp. enterica serovar typhimurium
[32] = Mutagenicity in Salmonella typhimurium TA98 at 250 ug/plate preincubated for 20 mins followed by addition of top agar and measured after 48 hrs by Ames test; assay type: toxicity; conditions: salmonella enterica subsp. enterica serovar typhimurium
[33] = Mutagenicity in Salmonella typhimurium TA98 at 500 ug/plate preincubated for 20 mins followed by addition of top agar and measured after 48 hrs by Ames test; assay type: toxicity; conditions: salmonella enterica subsp. enterica serovar typhimurium
[34] = Mutagenicity in Salmonella typhimurium TA102 at 500 ug/plate preincubated for 20 mins followed by addition of top agar and measured after 48 hrs by Ames test; assay type: toxicity; conditions: salmonella enterica subsp. enterica serovar typhimurium
Mus musculus [35] = assay: Anxiolytic activity in albino Swiss CD-1 mouse assessed as increase in number of punished crossings at 20 mg/kg, ip administered 30 mins prior to test by four-plate test relative to control; assay type: functional
Mus musculus [36] = assay: Anxiolytic activity in albino Swiss CD-1 mouse assessed as increase in number of punished crossings at 5 mg/kg, ip administered 30 mins prior to test by four-plate test relative to control; assay type: functional
[37] = target: 5-hydroxytryptamine receptor 2A (Homo sapiens, UniProt P28223); assay: Displacement of [3H]-ketanserin from human 5-HT2A receptor expressed in CHO-K1 cell membranes after 60 mins by microbeta scintillation counting analysis
Mus musculus [38] = assay: Antidepressant-like activity in CD-1 mouse assessed as reduction in immobility at 10 mg/kg, ip pretreated for 30 mins and measured after 6 mins by force swim test relative to control; assay type: functional; parameters: scale not given: the % may be the effect or the level left

Sequence of Serotonin 2 (5-HT2) receptor (Rattus norvegicus) (P08909 whole entry, looked up): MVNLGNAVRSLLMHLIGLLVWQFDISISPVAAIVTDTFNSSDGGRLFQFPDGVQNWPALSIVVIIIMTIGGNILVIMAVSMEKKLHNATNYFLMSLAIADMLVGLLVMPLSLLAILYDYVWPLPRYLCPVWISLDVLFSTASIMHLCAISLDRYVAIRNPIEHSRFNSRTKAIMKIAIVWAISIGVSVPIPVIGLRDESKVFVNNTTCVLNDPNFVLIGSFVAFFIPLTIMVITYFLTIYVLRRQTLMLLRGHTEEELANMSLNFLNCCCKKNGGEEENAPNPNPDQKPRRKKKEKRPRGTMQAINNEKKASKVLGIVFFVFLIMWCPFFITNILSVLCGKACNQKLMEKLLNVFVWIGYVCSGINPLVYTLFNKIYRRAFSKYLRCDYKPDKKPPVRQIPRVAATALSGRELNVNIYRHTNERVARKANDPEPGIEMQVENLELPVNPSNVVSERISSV
Sequence of Serotonin 2 (5-HT2) receptor (Rattus norvegicus) (P14842 whole entry, looked up): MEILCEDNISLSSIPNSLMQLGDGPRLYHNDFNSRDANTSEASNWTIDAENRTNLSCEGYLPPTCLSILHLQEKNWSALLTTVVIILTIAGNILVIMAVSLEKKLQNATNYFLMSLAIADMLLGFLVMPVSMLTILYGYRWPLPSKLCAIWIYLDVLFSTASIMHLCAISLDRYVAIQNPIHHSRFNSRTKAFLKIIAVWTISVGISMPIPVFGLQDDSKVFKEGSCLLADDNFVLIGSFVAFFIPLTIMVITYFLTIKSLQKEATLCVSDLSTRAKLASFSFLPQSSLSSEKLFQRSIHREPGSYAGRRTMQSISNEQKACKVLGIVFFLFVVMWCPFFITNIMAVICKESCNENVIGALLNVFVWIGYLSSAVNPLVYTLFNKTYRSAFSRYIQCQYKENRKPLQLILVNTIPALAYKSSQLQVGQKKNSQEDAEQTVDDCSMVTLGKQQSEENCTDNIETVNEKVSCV
Sequence of Serotonin 2 (5-HT2) receptor (Rattus norvegicus) (P30994 whole entry, looked up): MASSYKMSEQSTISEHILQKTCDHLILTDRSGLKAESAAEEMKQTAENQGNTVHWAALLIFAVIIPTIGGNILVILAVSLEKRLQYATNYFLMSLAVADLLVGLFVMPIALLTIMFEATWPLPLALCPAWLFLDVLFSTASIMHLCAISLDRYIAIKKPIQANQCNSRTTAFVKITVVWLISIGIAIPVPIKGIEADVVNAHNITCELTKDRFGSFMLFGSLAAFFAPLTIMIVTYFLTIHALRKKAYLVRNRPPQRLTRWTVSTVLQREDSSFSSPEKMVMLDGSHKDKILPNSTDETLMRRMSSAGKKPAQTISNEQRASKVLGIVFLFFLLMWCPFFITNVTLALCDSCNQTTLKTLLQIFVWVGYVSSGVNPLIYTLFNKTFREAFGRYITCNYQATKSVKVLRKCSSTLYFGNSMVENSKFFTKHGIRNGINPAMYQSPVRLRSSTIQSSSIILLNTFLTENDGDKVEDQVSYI
Sequence of 5-hydroxytryptamine receptor 2A (P28223 whole entry): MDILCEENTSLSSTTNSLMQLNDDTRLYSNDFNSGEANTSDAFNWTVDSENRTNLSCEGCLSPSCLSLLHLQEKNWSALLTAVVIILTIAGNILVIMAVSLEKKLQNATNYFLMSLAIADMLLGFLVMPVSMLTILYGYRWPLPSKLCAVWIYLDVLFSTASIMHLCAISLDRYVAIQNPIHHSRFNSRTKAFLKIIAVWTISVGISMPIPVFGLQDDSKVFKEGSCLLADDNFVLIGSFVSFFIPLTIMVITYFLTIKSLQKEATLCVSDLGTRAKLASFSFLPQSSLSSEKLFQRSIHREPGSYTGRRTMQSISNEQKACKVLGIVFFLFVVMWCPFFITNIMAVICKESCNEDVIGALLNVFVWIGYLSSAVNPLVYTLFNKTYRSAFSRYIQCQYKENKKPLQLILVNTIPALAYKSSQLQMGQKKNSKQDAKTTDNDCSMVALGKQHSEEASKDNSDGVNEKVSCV

## O=c1c2ccc(Cl)cc2oc2c(CN3CCN(c4ccccc4)CC3)cccc12
[1]
  inhibition: 75%

## COc1ccc(OCCCN2CCN(Cc3cccc4c(=O)c5ccc(OC)cc5oc34)CC2)cc1
[1]
  inhibition: 38%

## O=c1c2ccccc2oc2c(CN3CCN(c4ccccc4)CC3)cccc12
[1]
  inhibition: 88%

## O=c1c2ccc(Cl)cc2oc2ccc(CN3CCN(CCO)CC3)cc12
[1]
  inhibition: 39%

## Cl.Cl.O=c1c2ccc(Cl)cc2oc2c(CN3CCN(CCO)CC3)cccc12
Mus musculus [2]
  Activity: 30%

## [N-]=[N+]=[N-].[Na+] [SODIUM AZIDE]
[3]
  Activity_index: 2.26

## CN1CCN(Cc2cccc3c(=O)c4ccc(Cl)cc4oc23)CC1.Cl.Cl
Mus musculus [4]
  Activity: 28%
Mus musculus [5]
  Activity: 100%

## COc1ccc2c(=O)c3cccc(CN4CCN(Cc5ccccc5)CC4)c3oc2c1
[1]
  inhibition: 41%

## Nc1ccc([N+](=O)[O-])cc1N
[6]
  Activity_index: 10.79

## CN1CCN(Cc2ccc3oc4ccc(Cl)cc4c(=O)c3c2)CC1
[7]
  Vd/F: 41.3 L/kg
[8]
  Activity_index: 2.93
[9]
  half-life: 126 min
[10]
  Tmax: 30 min
[11]
  MRT: 152 min
[12]
  Activity_index: Dose-dependent effect
[13]
  Activity_index: 1.04
[14]
  CL/F: 226 mL/min/kg
[15]
  Activity_index: 2.08
Mus musculus [16]
  Activity: inactive
[17]
  Cmax: 3690 ng/mL
[18]
  Kp at 8 h: 31.6
[19]
  Tmax: 15 min
[20]
  Cmax: 136 ng/mL
[21]
  MRT: 129 min
[22]
  AUCt: 633023 ng·min/g
[23]
  half-life: 159 min
[24]
  Activity_index: 1.04
[3]
  Activity_index: 1.21
Mus musculus [25]
  Activity: 37.8%
Mus musculus [4]
  Activity: 24.7%
[1]
  inhibition: 50%
[26]
  AUC(0-t) at 8 h: 334 ng·h/mL
[27]
  Retention_time: 4.64 min
[28]
  Activity_index: 0.78
[29]
  Activity_index: 0.43
[30]
  Activity_index: 0.86

## COc1ccccc1N1CCN(Cc2cccc3c(=O)c4ccccc4oc23)CC1
[1]
  inhibition: 70%

## Cl.Cl.O=c1c2ccccc2oc2c(CN3CCN(CCO)CC3)cccc12
[7]
  Vd/F: 26.9 L/kg
[31]
  Activity_index: 0.39
[8]
  Activity_index: 0.31
[9]
  half-life: 48.3 min
[10]
  Tmax: 15 min
[32]
  Activity_index: 0.52
[11]
  MRT: 24.1 min
[13]
  Activity_index: 0.74
[14]
  CL/F: 386 mL/min/kg
[15]
  Activity_index: 0.46
[17]
  Cmax: 2630 ng/mL
[18]
  Kp at 8 h: 4.85
[19]
  Tmax: 15 min
Mus musculus [2]
  Activity: 25.6%
[20]
  Cmax: 462 ng/mL
[21]
  MRT: 40.3 min
[22]
  AUCt: 62578 ng·min/g
[23]
  half-life: 143 min
[24]
  Activity_index: 1.34
[3]
  Activity_index: 0.69
Mus musculus [25]
  Activity: 38.1%
[1]
  inhibition: 0%
[26]
  AUC(0-t) at 8 h: 215 ng·h/mL
[27]
  Retention_time: 3.05 min
[33]
  Activity_index: 0.72
[28]
  Activity_index: 0.86
[34]
  Activity_index: 0.26
[29]
  Activity_index: 0.79
[30]
  Activity_index: 0.54

## CCOC(=O)N1CCN(Cc2cccc3c(=O)c4ccccc4oc23)CC1
[1]
  inhibition: 3%

## COc1ccc2c(=O)c3cccc(CN4CCN(c5ccccc5)CC4)c3oc2c1
[1]
  inhibition: 91%

## CCOC(=O)N1CCN(Cc2cccc3c(=O)c4ccc(OC)cc4oc23)CC1.Cl.Cl
[7]
  Vd/F: 43.8 L/kg
[31]
  Activity_index: 1.3
[8]
  Activity_index: 0.34
[9]
  half-life: 184 min
[10]
  Tmax: 30 min
[32]
  Activity_index: 0.72
[11]
  MRT: 74.6 min
[13]
  Activity_index: 0.82
[14]
  CL/F: 165 mL/min/kg
[15]
  Activity_index: 0.42
[17]
  Cmax: 936 ng/mL
[18]
  Kp at 8 h: 2.86
[19]
  Tmax: 15 min
Mus musculus [2]
  Activity: 50.2%
[20]
  Cmax: 468 ng/mL
[21]
  MRT: 60.5 min
[22]
  AUCt: 82715 ng·min/g
[23]
  half-life: 72 min
[24]
  Activity_index: 0.76
[3]
  Activity_index: 0.68
[1]
  inhibition: 22%
[26]
  AUC(0-t) at 8 h: 481 ng·h/mL
[27]
  Retention_time: 4.12 min
[33]
  Activity_index: 1
Mus musculus [35]
  Activity: 55.3%
[28]
  Activity_index: 0.79
[34]
  Activity_index: 0.87
Mus musculus [36]
  Activity: 70.1%
[29]
  Activity_index: 0.61
[30]
  Activity_index: 0.77

## COc1ccc2c(=O)c3cc(CN4CCN(c5ccccc5OC)CC4)ccc3oc2c1.Cl
[37]
  Ki: 561 nM
Mus musculus [38]
  Activity: 32%

## O=c1c2cc(Cl)ccc2oc2ccc(CN3CCN(CCO)CC3)cc12
[1]
  inhibition: 43%

## COc1ccc2c(=O)c3cccc(CN4CCN(c5ccccc5OC)CC4)c3oc2c1.Cl
[37]
  Ki: 2180 nM
Mus musculus [38]
  Activity: 24%

## COc1ccc(OCCCN2CCN(Cc3ccc4oc5cc(OC)ccc5c(=O)c4c3)CC2)cc1
[1]
  inhibition: 75%
